Laboratory results from article PMC3221659, “Targeting of Mitochondria-Endoplasmic Reticulum by Fluorescent Macrocyclic Compounds” (PLoS ONE, 2011).

Experiments:
[1] = tested on: human breast cancer cells (MCF-7); test: MTT cytotoxicity assay, MCF-7; format: cell-based; conditions: MCF-7 cells; for IC50: Homo sapiens, MCF7, MTT, 48 h
Method: (§1) One of the key issues to consider a probe suitable for living cells use is its cellular toxicity. In this context, the cytotoxicity of the five synthesised macrocyclic compounds is assessed by a 3-(4,5-dimethylthiazol-2-yl)-2,5-diphenyltetrazolium bromide (MTT) assay. The cytotoxicity of the starting material 1,10-phenanthroline-2,9-dicarbaldehyde is measured by MTT assay for comparison. In this quantitative colorimetric assay, the amount of MTT reduced by cells to its formazan derivative is quantified spectroscopically at 570 nm and is considered equivalent to the number of viable cells. The cytotoxicity of the referred compounds is evaluated using human breast cancer cells (MCF-7), non-cancerous human dermal fibroblasts (NHDF) and human adult dermal skin fibroblasts (designated P14) obtained from the breast biopsy specimen of a person diagnosed with breast cancer. All cells have been exposed to the six different compounds in five concentrations ranging from 10 nM to 100 µM during a period of exposition of 48 h.
(§2) Cell viability was studied quantifying the extent of the reduction of 3-(4,5-dimethylthiazol-2-yl)-2,5-diphenyltetrazolium bromide (MTT) according to a previously described procedure. Briefly, cells were seeded in 48-well plates (0.5×10^4 cells/well) in the culture medium containing FBS and after 48 h they were treated with five concentrations (10 nM and 100 nM, 1 µM, 10 µM and 100 µM) of the different compounds for 48 h, with untreated cells serving as control. At the end of incubation the media in wells were removed and replaced with fresh media and MTT solution and incubated at 37°C for 4 h. Thereafter, media-containing MTT were removed and formazan crystals were dissolved and absorbance was recorded in Biorad 550 microplate reader at 570 nm. The extent of cell death was expressed as the percentage of cell viability in comparison with control cells.
(§3) All experiments were performed in triplicate. The IC50 values were calculated from the obtained dose-response curve by sigmoid fitting. Graphical results of citotoxicity were expressed as the average values ± SEM (standard error of mean). Comparison among multiple groups was analyzed by using a one-way ANOVA followed by Dunnet's post hoc tests to determine significant differences among the means. Difference between groups was considered statistically significant at P<0.05.

MCF-7 cells = test: Mitochondrial membrane potential by flow cytometry (CMXRos / MitoTracker Green), MCF-7; format: cell-based, human; conditions: 10 µM, 48 h
Text: (§4) In order to study the effects of the compounds in mitochondrial membrane potential (MMP) of MCF-7 and NHDF cells, flow cytometry assay was employed to monitor any fluorescence changes in MitoTracker Green™ and red fluorescence of chloromethyl-X-rosamine (CMXRos), treatment with the uncoupler 2,4-dinitrophenol (2,4-DNP) to collapse the MMP. While MitoTracker Green™ staining was relatively unaffected by changes in MMP, the CMXRos staining of mitochondria is sensitive to MMP [30]. Also, laser scanning confocal microscopy was employed to analyze changes in mitochondrial localization by treated cells with uncoupler 2,4-DNP and staining with MitoTracker Green™ and compounds.
(§5) The assessment of mitochondrial membrane potential was determined as described previously. Briefly, the cells were incubated with 200 nM of MitoTracker Green™ and 200 nM of Mitotracker Red (CMXRos) for 30 min prior to harvesting. The 2,4-dinitrophenol (DNP) was used as a mitochondrial uncoupler (300 µM, 2 h). The cells were treated with compounds concentration 10 µM for 48 h. The relative mitochondrial membrane potential was analyzed by flow cytometry by measuring the mean intensity of FL1 (green) and FL4 (red) channels. The FL4/FL1 ratio intensities of compounds treated and positive control (DNP) were compared and indicated if the compounds change the mitochondrial membrane potential of the cells.

[2] = tested on: human adult dermal skin fibroblasts (P14); test: MTT cytotoxicity assay, P14; format: cell-based; conditions: P14 cells, 48 h; for reduction in cell viability (approximately 50%): 0.1 µM; for IC50: Homo sapiens, Skin fibroblast
Method: as §1, §2, §3

NHDF cells [3] = test: Annexin V-FITC / PI flow cytometry, NHDF; format: cell-based, human; conditions: 10 µM, 48 h
Method: For this purpose, the fluorescein isothiocyanate (FITC)-conjugated annexin V - PI (propidium iodide) flow cytometry assay is employed, allowing the identification of apoptosis and necrosis. Thus, MCF-7 and NHDF cells are treated with two concentrations (10 nM and 10 µM) of each compound for 48 h. These concentrations are […], except for [32]phen2N4 on MCF-7 cells.
To detect apoptosis, cells were stained with propidium iodide (PI) and fluorescein isothiocyanate (FITC)-conjugated annexin V using an Annexin V-FITC Apoptosis Detection Kit (BD PharmingenTM). Briefly, cells were seeded in […] flasks in the culture medium containing FBS and after reaching approximated 90% confluence they were treated with two concentrations (10 nM and 10 µM) of each compound for 48 h, with untreated cells serving as control. At the end of incubation, cells were harvested by trypsin-EDTA treatment, washed twice with cold PBS and resuspended with 1× binding buffer (1 mL). […] After the addition of […] of 1× binding buffer, stained cells were subjected to fluorescence-activated cell sorter (FACS) analysis using a FACSCalibur flow cytometer. The FITC fluorescence was measured between 515 and 545 nm and the PI fluorescence between 564 and 606 nm. […]

NHDF cells [4] = test: Mitochondrial membrane potential by flow cytometry (CMXRos / MitoTracker Green), NHDF; format: cell-based, human; conditions: 10 µM, 48 h
Text: as §4, §5

[5] = tested on: MCF-7, NHDF and P14 cells; test: Fluorescence and confocal microscopy: uptake and sub-cellular localization; format: cell-based, human; conditions: 10 nM and 100 µM over 48 h
Method: The timescale of trafficking of these compounds and their sub-cellular localization have been subsequently examined in MCF-7, NHDF and P14 cells using fluorescence microscopy. The cells are mounting on 0.1 mm thick glass cover slips by withdrawal of the respectively growth medium.
The incubation times to test the ability compounds to penetrate into cells varied from 5 min to 48 h, and concentrations onto the cells were 10 nM and 100 µM by dissolving in appropriate medium. […] By analyzing each image recorded, all the compounds in all cells rapidly crossed the cell membrane (5 min) and induced a slight stain in the first minutes of incubation, depending on the type of cells. However, for incubation times longer than 30 min, it seems that this difference in the stained disappeared, thus appearing that the compounds were localized into an organelle of the cytoplasm.
Besides, the subcellular localization of the compounds has been confirmed by co-staining with MitoTracker™ (25 nM, 45 min of incubation) and ER-Tracker™ (100 nM, 30 min of incubation) probes in MCF-7, NHDF and P14 cells, with compound concentrations of 10 nM and 100 nM and for incubation times of 1 h.
After growth in the glass bottom culture dishes coated with collagen (1×10^4 cells/dish), the cells were incubated in the dark at 37°C with 10 nM of all the compounds and analyzed from 5 min to 48 h. […]

[6] = tested on: non-cancerous human dermal fibroblasts (NHDF); test: MTT cytotoxicity assay, NHDF; format: cell-based; conditions: NHDF cells, 48 h
Method: as §1, with “All cells have been exposed to the six different compounds in five concentrations ranging from 10 nM to 100 µM during a period of exposition of 48 h.” left out
Cell viability was studied quantifying the extent of the reduction of 3-(4,5-dimethylthiazol-2-yl)-2,5-diphenyltetrazolium bromide (MTT) according to a previously described procedure. […] Thereafter, media-containing MTT were removed and formazan crystals were dissolved and absorbance was recorded in Biorad 550 microplate reader at 570 nm. The extent of cell death was expressed as the percentage of cell viability in comparison with control cells. […]

| Compound | IC50 [1] | effect on mitochondrial membrane potential (red fluorescence, FL4/FL1) versus positive control 2,4-DNP (MCF-7 cells) | reduction in cell viability (approximately 50%) [2] | percentage of late apoptotic cells (NHDF cells [3]) | effect on mitochondrial membrane potential (FL4/FL1 ratio) versus positive control 2,4-DNP (NHDF cells [4]) | cytotoxicity ([1]; 10 nM to 10 µM) | IC50 [2] | signs of cytotoxicity in microscopy [5] | IC50 [6] |
| --- | --- | --- | --- | --- | --- | --- | --- | --- | --- |
| c1cc2ccc3ccc4nc3c2nc1CNCCCCCCNC4 [[16]phenN2] | > 100 µM | decrease of red fluorescence | not observed | about 20% | modify the MMP |  |  |  |  |
| c1cc2ccc3ccc4nc3c2nc1CNCCCCCCNCc1ccc2ccc3ccc(nc3c2n1)CNCCCCCCNC4 [[32]phen2N4] | < 0.01 µM |  |  |  |  | highly cytotoxic | 85.3 ± 1.79 µM | no relevant signs of cytotoxicity | 78.9 ± 2.82 µM |
| c1cc2ccc3ccc4nc3c2nc1CN1CCCCCCN(C4)Cc2ccc3ccc4ccc(nc4c3n2)CN2CCCCCCN(Cc3ccc4ccc5ccc(nc5c4n3)C2)Cc2ccc3ccc4ccc(nc4c3n2)C1 [cryptphen] | > 100 µM |  | not observed |  | modify the MMP |  |  |  |  |
| CN1CCCNCc2cccc(n2)CNCCCN(C)CCCNCc2cccc(n2)CNCCC1 [Me2[28]py2N6] | > 100 µM | decrease of red fluorescence |  |  |  |  | 36.8 ± 4.68 µM |  | 69.7 ± 3.02 µM |
| O=Cc1ccc2ccc3ccc(C=O)nc3c2n1 [1,10-phen, 1,10-phenanthroline-2,9-dicarbaldehyde, reference compound] | > 100 µM |  |  | about 20% |  |  |  |  |  |
| c1cc2ccc3ccc4nc3c2nc1CNCCNCCNCc1ccc2ccc3ccc(nc3c2n1)CNCCNCCNC4 [[30]phen2N6] | > 100 µM |  |  |  |  |  |  |  |  |
